Columns and labels:
Assay in all cases: KINOMEscan competition binding
EPHA2 = EPHA2 (Homo sapiens, UniProt P29317); details: read-out: %Inh EPHA2
CAMK1B = CAMK1B (Homo sapiens, UniProt Q6P2M8); details: read-out: %Inh CAMK1B
CSNK1A1 = CSNK1A1 (Homo sapiens, UniProt P48729); details: read-out: %Inh CSNK1A1
ERN1 = ERN1 (Homo sapiens, UniProt O75460); details: read-out: %Inh ERN1
CDK4-cyclinD1 = CDK4-cyclinD1 (Homo sapiens, UniProt P11802); details: read-out: %Inh CDK4-cyclinD1
HUNK = biological target: T1, HUNK (Homo sapiens, UniProt P57058); details: read-out: %Inh HUNK
T1 sequence (P57058 1-714): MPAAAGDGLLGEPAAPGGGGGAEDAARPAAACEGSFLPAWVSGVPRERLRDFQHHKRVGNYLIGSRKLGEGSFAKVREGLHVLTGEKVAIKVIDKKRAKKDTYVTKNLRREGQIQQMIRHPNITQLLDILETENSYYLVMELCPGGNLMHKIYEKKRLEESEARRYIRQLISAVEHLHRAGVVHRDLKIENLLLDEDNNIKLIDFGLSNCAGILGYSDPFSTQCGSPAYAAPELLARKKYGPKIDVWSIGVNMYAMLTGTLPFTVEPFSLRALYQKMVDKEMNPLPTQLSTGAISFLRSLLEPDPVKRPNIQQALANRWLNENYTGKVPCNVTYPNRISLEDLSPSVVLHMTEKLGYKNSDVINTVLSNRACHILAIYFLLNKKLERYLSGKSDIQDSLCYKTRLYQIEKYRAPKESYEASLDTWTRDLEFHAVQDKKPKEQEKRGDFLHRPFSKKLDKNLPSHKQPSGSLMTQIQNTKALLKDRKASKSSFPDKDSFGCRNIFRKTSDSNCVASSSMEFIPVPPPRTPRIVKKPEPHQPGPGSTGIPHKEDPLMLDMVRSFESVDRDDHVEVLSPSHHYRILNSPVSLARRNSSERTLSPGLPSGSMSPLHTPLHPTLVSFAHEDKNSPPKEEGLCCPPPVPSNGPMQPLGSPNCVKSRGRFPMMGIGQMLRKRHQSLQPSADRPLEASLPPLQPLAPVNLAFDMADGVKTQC

AKT2 = AKT2 (Homo sapiens, UniProt P31751); details: read-out: %Inh AKT2
Chain of AKT2 (P31751 whole entry): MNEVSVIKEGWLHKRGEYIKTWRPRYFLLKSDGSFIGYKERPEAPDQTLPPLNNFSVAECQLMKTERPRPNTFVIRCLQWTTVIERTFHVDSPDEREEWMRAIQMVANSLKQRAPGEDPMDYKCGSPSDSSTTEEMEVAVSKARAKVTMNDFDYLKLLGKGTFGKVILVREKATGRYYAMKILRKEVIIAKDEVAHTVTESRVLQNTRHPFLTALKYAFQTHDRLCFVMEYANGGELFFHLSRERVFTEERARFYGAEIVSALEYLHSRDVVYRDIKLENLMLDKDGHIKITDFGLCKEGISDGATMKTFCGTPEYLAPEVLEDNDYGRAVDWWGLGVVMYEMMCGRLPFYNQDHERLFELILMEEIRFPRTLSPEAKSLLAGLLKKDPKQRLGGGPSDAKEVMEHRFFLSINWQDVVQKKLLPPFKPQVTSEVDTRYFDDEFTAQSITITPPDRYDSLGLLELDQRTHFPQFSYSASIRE

INSR = INSR (Homo sapiens, UniProt P06213); details: read-out: %Inh INSR
LRRK2 = LRRK2 (Homo sapiens, UniProt Q5S007); details: read-out: %Inh LRRK2
Chain of LRRK2 (Q5S007 whole entry): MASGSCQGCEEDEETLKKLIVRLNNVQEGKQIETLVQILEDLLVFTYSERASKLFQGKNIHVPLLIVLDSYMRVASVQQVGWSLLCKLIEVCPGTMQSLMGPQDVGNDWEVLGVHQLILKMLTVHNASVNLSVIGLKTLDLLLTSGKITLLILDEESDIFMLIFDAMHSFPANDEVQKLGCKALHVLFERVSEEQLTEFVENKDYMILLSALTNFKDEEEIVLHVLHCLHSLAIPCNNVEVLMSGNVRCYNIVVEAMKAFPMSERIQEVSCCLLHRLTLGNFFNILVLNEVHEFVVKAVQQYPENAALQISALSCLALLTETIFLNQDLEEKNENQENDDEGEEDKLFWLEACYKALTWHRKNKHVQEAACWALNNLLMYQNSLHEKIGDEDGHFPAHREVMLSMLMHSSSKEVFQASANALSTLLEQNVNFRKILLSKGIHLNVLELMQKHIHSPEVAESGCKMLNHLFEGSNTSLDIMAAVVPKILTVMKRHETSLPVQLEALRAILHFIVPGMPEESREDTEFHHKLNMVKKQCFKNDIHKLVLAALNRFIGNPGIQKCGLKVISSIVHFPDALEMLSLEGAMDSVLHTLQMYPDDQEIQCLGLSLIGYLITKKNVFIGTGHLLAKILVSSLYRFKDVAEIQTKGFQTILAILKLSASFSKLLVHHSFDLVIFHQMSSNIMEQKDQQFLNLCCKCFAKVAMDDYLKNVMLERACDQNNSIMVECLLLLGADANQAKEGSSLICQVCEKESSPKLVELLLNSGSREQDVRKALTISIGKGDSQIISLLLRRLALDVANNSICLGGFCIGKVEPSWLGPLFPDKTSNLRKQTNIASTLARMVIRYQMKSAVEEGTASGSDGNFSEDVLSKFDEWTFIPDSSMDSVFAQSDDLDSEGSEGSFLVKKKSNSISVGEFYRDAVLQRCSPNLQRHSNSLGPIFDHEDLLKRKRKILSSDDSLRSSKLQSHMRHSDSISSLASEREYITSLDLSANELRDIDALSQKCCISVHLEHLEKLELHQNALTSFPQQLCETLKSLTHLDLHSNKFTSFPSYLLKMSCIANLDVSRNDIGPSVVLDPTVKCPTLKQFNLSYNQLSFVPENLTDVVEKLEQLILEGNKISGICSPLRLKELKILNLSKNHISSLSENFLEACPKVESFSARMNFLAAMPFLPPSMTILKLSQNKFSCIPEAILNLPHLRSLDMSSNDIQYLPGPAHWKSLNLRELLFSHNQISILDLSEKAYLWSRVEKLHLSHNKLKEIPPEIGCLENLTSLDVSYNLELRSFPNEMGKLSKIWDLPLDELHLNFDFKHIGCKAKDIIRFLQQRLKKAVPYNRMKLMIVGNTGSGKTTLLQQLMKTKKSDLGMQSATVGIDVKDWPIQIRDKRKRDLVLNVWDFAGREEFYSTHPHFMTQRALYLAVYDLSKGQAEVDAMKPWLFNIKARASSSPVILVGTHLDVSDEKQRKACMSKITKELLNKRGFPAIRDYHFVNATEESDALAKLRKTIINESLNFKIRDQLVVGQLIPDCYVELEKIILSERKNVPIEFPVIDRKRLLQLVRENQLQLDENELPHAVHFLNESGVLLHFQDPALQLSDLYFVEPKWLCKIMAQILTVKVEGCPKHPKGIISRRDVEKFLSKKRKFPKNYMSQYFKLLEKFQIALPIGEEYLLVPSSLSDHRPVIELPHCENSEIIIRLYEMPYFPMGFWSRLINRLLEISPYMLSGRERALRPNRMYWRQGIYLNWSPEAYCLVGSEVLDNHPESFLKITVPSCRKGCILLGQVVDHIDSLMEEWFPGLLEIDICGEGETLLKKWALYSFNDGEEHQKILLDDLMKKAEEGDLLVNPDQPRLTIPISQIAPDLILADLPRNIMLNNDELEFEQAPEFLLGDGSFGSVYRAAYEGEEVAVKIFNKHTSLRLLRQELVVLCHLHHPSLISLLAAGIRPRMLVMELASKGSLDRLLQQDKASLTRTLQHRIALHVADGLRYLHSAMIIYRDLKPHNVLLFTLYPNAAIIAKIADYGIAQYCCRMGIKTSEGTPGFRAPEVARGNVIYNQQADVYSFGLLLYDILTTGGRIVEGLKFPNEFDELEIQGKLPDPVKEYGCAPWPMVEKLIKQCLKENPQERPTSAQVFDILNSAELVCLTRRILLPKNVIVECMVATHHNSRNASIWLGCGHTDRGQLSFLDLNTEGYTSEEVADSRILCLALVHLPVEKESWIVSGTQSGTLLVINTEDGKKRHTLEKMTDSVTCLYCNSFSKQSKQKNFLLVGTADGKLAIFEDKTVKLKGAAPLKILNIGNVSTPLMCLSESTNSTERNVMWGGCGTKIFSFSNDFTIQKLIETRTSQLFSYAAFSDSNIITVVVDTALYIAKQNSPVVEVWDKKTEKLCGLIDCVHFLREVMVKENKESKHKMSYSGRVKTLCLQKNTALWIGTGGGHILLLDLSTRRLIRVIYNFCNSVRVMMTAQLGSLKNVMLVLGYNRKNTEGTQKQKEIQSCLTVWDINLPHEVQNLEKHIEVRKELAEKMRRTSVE

ACVR1 = biological target: T2, ACVR1 (Homo sapiens, UniProt Q04771); details: read-out: %Inh ACVR1
T2 sequence (Q04771 21-509): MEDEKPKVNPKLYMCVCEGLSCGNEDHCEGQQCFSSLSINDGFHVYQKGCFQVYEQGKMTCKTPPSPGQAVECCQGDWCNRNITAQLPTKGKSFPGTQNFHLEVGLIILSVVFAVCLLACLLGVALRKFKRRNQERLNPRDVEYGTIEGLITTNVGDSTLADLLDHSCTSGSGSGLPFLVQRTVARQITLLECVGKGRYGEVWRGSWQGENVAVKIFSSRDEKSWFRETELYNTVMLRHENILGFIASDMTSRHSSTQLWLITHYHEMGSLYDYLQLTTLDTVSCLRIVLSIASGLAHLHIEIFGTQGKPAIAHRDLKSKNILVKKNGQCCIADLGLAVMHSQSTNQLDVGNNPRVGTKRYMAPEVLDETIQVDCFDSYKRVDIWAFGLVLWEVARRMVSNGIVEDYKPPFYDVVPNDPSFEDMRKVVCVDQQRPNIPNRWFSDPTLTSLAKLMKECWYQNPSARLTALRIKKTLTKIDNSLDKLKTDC

IKK-alpha = biological target: T3, IKK-alpha (Homo sapiens, UniProt O15111); details: read-out: %Inh IKK-alpha
T3 sequence (O15111 1-745): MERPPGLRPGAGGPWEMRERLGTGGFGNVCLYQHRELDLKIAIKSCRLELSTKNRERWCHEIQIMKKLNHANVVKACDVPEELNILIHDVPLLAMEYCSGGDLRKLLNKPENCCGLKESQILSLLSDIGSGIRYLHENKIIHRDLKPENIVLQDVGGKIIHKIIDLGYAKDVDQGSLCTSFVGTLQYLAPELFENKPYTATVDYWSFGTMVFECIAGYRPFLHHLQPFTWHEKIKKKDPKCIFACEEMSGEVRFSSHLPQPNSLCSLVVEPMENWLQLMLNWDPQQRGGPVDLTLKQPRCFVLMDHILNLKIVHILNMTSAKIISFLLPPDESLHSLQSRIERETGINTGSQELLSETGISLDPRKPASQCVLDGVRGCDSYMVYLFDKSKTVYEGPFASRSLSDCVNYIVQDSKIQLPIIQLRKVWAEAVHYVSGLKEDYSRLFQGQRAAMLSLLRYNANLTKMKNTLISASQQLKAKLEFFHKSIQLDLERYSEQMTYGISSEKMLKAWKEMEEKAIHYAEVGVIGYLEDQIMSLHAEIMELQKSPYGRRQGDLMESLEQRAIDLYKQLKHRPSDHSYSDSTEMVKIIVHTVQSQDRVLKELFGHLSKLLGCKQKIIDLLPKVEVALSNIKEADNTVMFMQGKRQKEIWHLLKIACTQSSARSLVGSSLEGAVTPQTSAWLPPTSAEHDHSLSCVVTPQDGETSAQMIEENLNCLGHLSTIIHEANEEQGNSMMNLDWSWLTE

AURKB = AURKB (Homo sapiens, UniProt Q96GD4); details: read-out: %Inh AURKB
CDK7 = CDK7 (Homo sapiens, UniProt P50613); details: read-out: %Inh CDK7
Chain of CDK7 (P50613 whole entry): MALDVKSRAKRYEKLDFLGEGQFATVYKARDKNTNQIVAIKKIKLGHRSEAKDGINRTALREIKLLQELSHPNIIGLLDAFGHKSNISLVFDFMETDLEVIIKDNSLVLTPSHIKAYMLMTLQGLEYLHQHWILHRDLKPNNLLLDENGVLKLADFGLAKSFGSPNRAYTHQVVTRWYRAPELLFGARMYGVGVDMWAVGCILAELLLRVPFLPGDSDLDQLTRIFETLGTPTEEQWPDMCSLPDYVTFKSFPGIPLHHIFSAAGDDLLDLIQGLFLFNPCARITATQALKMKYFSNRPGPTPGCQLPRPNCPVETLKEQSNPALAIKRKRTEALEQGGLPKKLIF

CAMK2A = CAMK2A (Homo sapiens, UniProt Q9UQM7); details: read-out: %Inh CAMK2A

Chain of CSNK1A1 (P48729 whole entry): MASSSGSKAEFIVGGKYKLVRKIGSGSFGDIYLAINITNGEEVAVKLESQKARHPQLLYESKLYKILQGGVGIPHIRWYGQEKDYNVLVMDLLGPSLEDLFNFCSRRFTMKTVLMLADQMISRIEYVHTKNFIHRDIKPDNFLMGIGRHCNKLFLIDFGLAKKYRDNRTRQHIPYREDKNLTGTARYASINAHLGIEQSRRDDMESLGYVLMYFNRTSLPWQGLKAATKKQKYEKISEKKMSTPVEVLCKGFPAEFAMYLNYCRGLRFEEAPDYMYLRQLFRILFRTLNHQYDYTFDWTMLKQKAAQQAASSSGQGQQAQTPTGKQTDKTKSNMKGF
Chain of CAMK1B (Q6P2M8 whole entry): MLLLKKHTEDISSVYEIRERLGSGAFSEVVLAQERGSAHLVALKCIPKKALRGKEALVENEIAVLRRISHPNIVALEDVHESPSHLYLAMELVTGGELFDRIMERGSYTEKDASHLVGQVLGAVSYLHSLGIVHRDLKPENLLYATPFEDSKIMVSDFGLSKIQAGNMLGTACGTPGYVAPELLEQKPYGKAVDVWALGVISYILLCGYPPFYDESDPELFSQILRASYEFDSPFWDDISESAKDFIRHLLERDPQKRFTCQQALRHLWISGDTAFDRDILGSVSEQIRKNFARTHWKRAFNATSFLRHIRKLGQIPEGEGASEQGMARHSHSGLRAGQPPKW
Chain of ERN1 (O75460 19-977): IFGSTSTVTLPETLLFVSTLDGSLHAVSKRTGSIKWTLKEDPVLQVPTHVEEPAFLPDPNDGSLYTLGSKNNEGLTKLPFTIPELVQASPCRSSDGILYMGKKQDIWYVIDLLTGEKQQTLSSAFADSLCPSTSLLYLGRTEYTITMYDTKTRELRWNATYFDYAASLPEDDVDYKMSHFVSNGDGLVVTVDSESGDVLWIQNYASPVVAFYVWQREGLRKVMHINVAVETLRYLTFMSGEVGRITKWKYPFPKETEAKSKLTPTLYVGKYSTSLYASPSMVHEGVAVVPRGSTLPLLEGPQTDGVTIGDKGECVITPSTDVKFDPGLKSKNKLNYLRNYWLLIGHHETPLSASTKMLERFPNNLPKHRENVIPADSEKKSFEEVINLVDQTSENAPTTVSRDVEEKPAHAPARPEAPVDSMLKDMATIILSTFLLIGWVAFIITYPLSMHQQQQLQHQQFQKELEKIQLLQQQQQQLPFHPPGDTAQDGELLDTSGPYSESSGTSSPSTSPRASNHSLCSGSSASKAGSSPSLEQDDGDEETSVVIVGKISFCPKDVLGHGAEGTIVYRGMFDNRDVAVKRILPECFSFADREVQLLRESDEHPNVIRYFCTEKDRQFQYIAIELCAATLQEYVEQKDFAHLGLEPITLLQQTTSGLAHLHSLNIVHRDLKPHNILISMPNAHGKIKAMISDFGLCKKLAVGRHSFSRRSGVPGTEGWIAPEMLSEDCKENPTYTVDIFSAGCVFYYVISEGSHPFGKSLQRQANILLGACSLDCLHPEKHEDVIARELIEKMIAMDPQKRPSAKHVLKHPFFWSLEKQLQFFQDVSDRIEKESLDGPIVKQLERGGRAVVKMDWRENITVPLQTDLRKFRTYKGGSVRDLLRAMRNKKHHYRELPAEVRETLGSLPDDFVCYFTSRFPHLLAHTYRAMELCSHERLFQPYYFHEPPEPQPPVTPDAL

For `Cn1cc(-c2cnc(N)c3c(-c4ccc5c(c4)CCN5C(=O)Cc4ccccc4)csc23)cn1` [UNC10225012A], which inhibition at 1 µM (EPHA2) is on record?
The inhibition at 1 µM was 0%.

What about the inhibition at 1 µM (CAMK1B) of the same compound?
The inhibition at 1 µM was 0%.

What about the inhibition at 1 µM (CSNK1A1) of the same compound?
The inhibition at 1 µM was 21%.

What about the inhibition at 1 µM (ERN1) of the same compound?
Its inhibition at 1 µM is 28%.

And the inhibition at 1 µM (CDK4-cyclinD1)?
The inhibition at 1 µM was 0%.

What about the inhibition at 1 µM (HUNK) of the same compound?
Its inhibition at 1 µM is 0%.

And the inhibition at 1 µM (AKT2)?
The inhibition at 1 µM was 0%.

What about the inhibition at 1 µM (INSR) of the same compound?
Its inhibition at 1 µM is 12%.

And the inhibition at 1 µM (LRRK2)?
The inhibition at 1 µM was 3%.

And the inhibition at 1 µM (ACVR1)?
Its inhibition at 1 µM is 7%.

And the inhibition at 1 µM (IKK-alpha)?
The inhibition at 1 µM was 0%.

What about the inhibition at 1 µM (AURKB) of the same compound?
The inhibition at 1 µM was 97.8%.

What about the inhibition at 1 µM (CDK7) of the same compound?
Its inhibition at 1 µM is 19%.

And the inhibition at 1 µM (CAMK2A)?
Its inhibition at 1 µM is 29%.

With `CS(=O)(=O)Cc1ccc(Nc2nccc(-c3c(-c4cccc(NC(=O)C5CCCCC5)c4)nn4ncccc34)n2)cc1` [UNC10225159A] as the compound, how does the inhibition at 1 µM (EPHA2) read?
Its inhibition at 1 µM is 51%.

And the inhibition at 1 µM (CAMK1B)?
The inhibition at 1 µM was 0%.

What about the inhibition at 1 µM (CSNK1A1) of the same compound?
The inhibition at 1 µM was 7%.

And the inhibition at 1 µM (ERN1)?
Its inhibition at 1 µM is 33%.

And the inhibition at 1 µM (CDK4-cyclinD1)?
The inhibition at 1 µM was 15%.

And the inhibition at 1 µM (HUNK)?
The inhibition at 1 µM was 7%.

And the inhibition at 1 µM (AKT2)?
Its inhibition at 1 µM is 4%.

What about the inhibition at 1 µM (INSR) of the same compound?
The inhibition at 1 µM was 42%.

And the inhibition at 1 µM (LRRK2)?
Its inhibition at 1 µM is 20%.

And the inhibition at 1 µM (ACVR1)?
Its inhibition at 1 µM is 18%.

And the inhibition at 1 µM (IKK-alpha)?
The inhibition at 1 µM was 0%.

And the inhibition at 1 µM (AURKB)?
The inhibition at 1 µM was 15%.

What about the inhibition at 1 µM (CDK7) of the same compound?
Its inhibition at 1 µM is 6%.

And the inhibition at 1 µM (CAMK2A)?
The inhibition at 1 µM was 15%.

What does the source list for `Cc1ccc(NC(=O)Nc2cccc(C(F)(F)F)c2)cc1` [UNC10225187A]?
inhibition at 1 µM (EPHA2): 0%; inhibition at 1 µM (CAMK1B): 0%; inhibition at 1 µM (CSNK1A1): 0%; inhibition at 1 µM (ERN1): 0%; inhibition at 1 µM (CDK4-cyclinD1): 0%; inhibition at 1 µM (HUNK): 0%; inhibition at 1 µM (AKT2): 3%; inhibition at 1 µM (INSR): 0%; inhibition at 1 µM (LRRK2): 0%; inhibition at 1 µM (ACVR1): 10%; inhibition at 1 µM (IKK-alpha): 0%; inhibition at 1 µM (AURKB): 0%; inhibition at 1 µM (CDK7): 12%; inhibition at 1 µM (CAMK2A): 32%

What does the source list for `COc1cccc(OC)c1C(=O)Nc1cccc(-c2nn3ccccc3c2-c2ccnc(Nc3cccc(F)c3)n2)c1` [UNC10225310A]?
inhibition at 1 µM (EPHA2): 11%; inhibition at 1 µM (CAMK1B): 0%; inhibition at 1 µM (CSNK1A1): 25%; inhibition at 1 µM (ERN1): 10%; inhibition at 1 µM (CDK4-cyclinD1): 0%; inhibition at 1 µM (HUNK): 15%; inhibition at 1 µM (AKT2): 0%; inhibition at 1 µM (INSR): 0%; inhibition at 1 µM (LRRK2): 0%; inhibition at 1 µM (ACVR1): 17%; inhibition at 1 µM (IKK-alpha): 0%; inhibition at 1 µM (AURKB): 0%; inhibition at 1 µM (CDK7): 22%; inhibition at 1 µM (CAMK2A): 27%

Which results are given for `O=c1cc(N2CCOCC2)nc2n(Cc3cccc(Cl)c3Cl)c(C3CC3)nn12` [UNC10225469A]?
inhibition at 1 µM (EPHA2): 0%; inhibition at 1 µM (CAMK1B): 0%; inhibition at 1 µM (CSNK1A1): 0%; inhibition at 1 µM (ERN1): 0%; inhibition at 1 µM (CDK4-cyclinD1): 0%; inhibition at 1 µM (HUNK): 0%; inhibition at 1 µM (AKT2): 0%; inhibition at 1 µM (INSR): 0%; inhibition at 1 µM (LRRK2): 0%; inhibition at 1 µM (ACVR1): 0%; inhibition at 1 µM (IKK-alpha): 0%; inhibition at 1 µM (AURKB): 4%; inhibition at 1 µM (CDK7): 5%; inhibition at 1 µM (CAMK2A): 25%

From publication PMC5540273, “Progress towards a public chemogenomic set for protein kinases and a call for contributions” (PLoS ONE, 2017)
